# Reference: US11339158B2, “Crystalline form of valbenazine ditosylate, processes for preparation thereof and use thereof” (Crystal Pharmaceutical (Suzhou) Co., Ltd., priority 2017, dated 2022)
# Entries after “also recorded” stand apart in the source; their conditions may differ. Where two headings read alike, the source gives them in different places.
# Key:
# Type in all cases: physicochemical
# [1] = Adhesiveness (material sticking to the punch); conditions: for Cumulative amount (mg) sticking to the punch / Maximum amount (mg) sticking to the punch: 30 mg, φ8 mm round tooling, 10 kN, 30 s, repeated compression
# Description: 30 mg of Form A and Form I in prior art were added into the dies of φ8 mm round tooling, compressed at 10 kN and held for 30 s. The punch was weighed and amount of material sticking to the punch was calculated. The compression was repeated several times to record the cumulative amount, maximum amount and average amount of material sticking to the punch during compression process.
# [2] = Hygroscopicity (Chinese Pharmacopoeia 2015, general notice 9103); conditions: for Percentage gain (weight gain, hygroscopicity): 25±1° C., relative humidity 80%±2%, 24 hours
# Description: The hygroscopicity experiment was conducted according to general notice 9103 drug hygroscopicity test guidelines in 2015 edition of Chinese Pharmacopoeia. The methods are listed as follows: • 1. A dry weighing bottle with a stopper (outer diameter is 50 mm and the height is 15 mm) was placed in a suitable desiccator at constant temperature of 25±1° C. (saturated solution of ammonium chloride or ammonium sulfate was placed in the lower compartment) or the a man-made climate chamber (the temperature is set as 25°±C. 1° C. and the relative humidity is 80%±2%) the day before the test. The weight is accurately weighed (m1). • 2. A suitable amount of the sample was spread into the weighing bottle. The thickness of the sample is generally about 1 mm, and the weight is accurately weighed (m2). • 3. The weighing bottle was kept open and placed under the same constant temperature and humidity mentioned above for 24 hours as well as the stopper. • 4. T The stopper was put on the weighing bottle, and then the weighing bottle with stopper was accurately weighed (m3).
# The hygroscopicity of Form A in the present disclosure and Form I in prior art was tested.
# [3] = Kinetic solubility in FaSSIF and FeSSIF; conditions: for solubility kinetic at 15 min / solubility kinetic at 30 min / solubility kinetic at 1 h: thermodynamic from solid, read-out: Kinetic solubility (concentration of saturated solution); for Kinetic solubility (concentration of saturated solution): listed as Prior art Form I
# Description: High Performance Liquid Chromatography (HPLC) data in the present disclosure were collected from an Agilent 1260 with Diode Array Detector (DAD).
# The HPLC method parameters for solubility test and dissolution tests in the present disclosure are as follows: • 1. Column: Waters XBridge C18 150×4.6 mm, 5 μm • 2. Mobile Phase: A: 0.1% TFA in H2O • B: 0.1% TFA in Acetonitrile
# • 3. Flow rate: 1.0 mL/min • 4. Injection Volume: 10 μL • 5. Detection wavelength: 230 nm • 6. Column Temperature: 40° C. • 7. Diluent: Acetonitrile: H2O (v:v)=50:50
# Simulated intestinal fluids, such as FaSSIF (fasted state simulated intestinal fluids) and FeSSIF (fed state simulated intestinal fluids) are biorelevant media. These media can better reflect the drug release affected by gastrointestinal environment. Solubility in such media is close to in vivo solubility.
# 20 mg of Form A in the present disclosure and 20 mg of prior art Form I were suspended in 1.5 mL of FaSSIF and 1.5 mL of FeSSIF to get saturated solutions. After equilibrium for 15 minutes, 30 minutes and 1 hour, concentrations of the saturated solutions (mg/mL) were measured by HPLC.
# [4] = Mechanical stability (tableting at 15 kN, XRPD); conditions: compressed at 15 kN, held 1 minute
# Description: About 0.1 g of Form A was added into a die, compressed at 15 kN, and held for 1 minute. And then the pressure was released and the sample in the die was taken out for XRPD test. […] The XRPD pattern is substantially as depicted in FIG. 9.
# [5] = Crystalline form after formulation process (XRPD of capsule); conditions: Form A in capsule
# Description: The preparation process is described in Table 8.
# The crystalline form of Form A in capsule was tested by XRPD. […] The XRPD pattern is substantially as depicted in FIG. 10.
# [6] = Stability of Form A drug substance (XRPD and HPLC); conditions: for Change in solid form: XRPD; for Change in purity %: HPLC
# Description: Four samples of Form A in the present disclosure was stored under different conditions of 25° C./60% RH in open and closed dishes for 3 months, 40° C./75% RH in closed dish for 3 months and 60° C./75% RH in closed dish for 1 week. Crystalline form and chemical impurity were checked by XRPD and HPLC, respectively.
# [7] = Flowability (compressibility index / Carr Index); conditions: for Carr Index: c=(ρf−ρ0)/ρf; for Flowability: criteria of ICH Q4B Annex 13
# Description: Compressibility index or Carr Index is usually utilized to evaluate the flowability of powder and granules during the drug product process. Compressibility index test method is as follows: a certain amount of powder was added into a measuring cylinder and bulk volume was recorded. Then the powder was tapped to make it in the tightest state and the tapped volume was recorded. The bulk density (ρ0), tapped density (ρf) were calculated and compressibility index was calculated according to c=(ρf−ρ0)/ρf.
# [8] = Compressibility (tensile strength); conditions: Φ6 mm round tooling, 80 mg, 10 kN; for Tensile strength (MPa): T=2H/πDL; for Diameter (mm) / Thickness (mm): after 24 h
# Description: A manual tablet press was used for compression. A certain amount of Form A and prior art Form I were added into the dies of round tooling (Ensuring the isotropy of the tablet), compressed at suitable pressure, and then stored at room temperature for 24 h until complete elastic recovery. Hardness (H) was tested with Intelligent Tablet Hardness Tester. Diameter (D) and thickness (L) were tested with caliper. Tensile strength of the powder was calculated with the following formula: T=2H/πDL. Under a certain force, the greater the tensile strength, the better the compressibility.
# [9] = 25° C./60% RH in open dish, 3 months
# [10] = 40° C./75% RH in closed dish, 3 months
# [11] = 60° C./75% RH in closed dish, 1 week
structure (smiles),measurement,setting,value
"COc1cc2c(cc1OC)[C@H]1C[C@@H](OC(=O)[C@@H](N)C(C)C)[C@H](CC(C)C)CN1CC2 [Form A, (S)-2-amino-3-methyl-butyric acid (2R,3R,11bR)-3-isobutyl-9,10-dimethoxy-1,3,4,6,7,11b-hexahydro-2H-pyrido[2,1-a]isoquinolin-2-yl ester]",Cumulative amount (mg) sticking to the punch,[1],0.06 mg
same,Maximum amount (mg) sticking to the punch,[1],0.17 mg
same,Hygroscopicity relative to prior art form,[2]; Chinese Pharmacopoeia hygroscopicity test,3/5
same,solubility kinetic at 15 min,"[3]; FaSSIF, FaSSIF, 15 minutes",31.4 mg/mL
same,solubility kinetic at 30 min,"[3]; FaSSIF, FaSSIF, 30 minutes",31.3 mg/mL
same,solubility kinetic at 1 h,"[3]; FaSSIF, FaSSIF, 1 hour",31.8 mg/mL
same,Solubility of Form A relative to prior art Form I,[3]; FeSSIF,1.23 times
same,solubility kinetic at 15 min,"[3]; FeSSIF, FeSSIF, 15 minutes",41.9 mg/mL
same,solubility kinetic at 30 min,"[3]; FeSSIF, FeSSIF, 30 minutes",41.7 mg/mL
same,solubility kinetic at 1 h,"[3]; FeSSIF, FeSSIF, 1 hour",41.3 mg/mL
same,Form change after tableting,[4],doesn't change; also recorded: no form change is observed
same,Form change of Form A after formulation process,[5],no form change was observed; also recorded: doesn't change
same,Time physically and chemically stable,[6]; 25° C./60% RH in closed dish,at least 3 months
same,Change in solid form,"[6]; 25° C./60% RH in closed dish, 3 months",doesn't change; also recorded: No form change
same,Time physically and chemically stable,[6]; 25° C./60% RH in open dish,at least 3 months
same,Change in purity %,[6]; [9],0.03%
same,Change in solid form,[6]; [9],doesn't change; also recorded: No form change
same,Time physically and chemically stable,[6]; 40° C./75% RH in closed dish,at least 3 months
same,Change in purity %,[6]; [10],0.09%
same,Change in solid form,[6]; [10],doesn't change; also recorded: No form change
same,Time stable,[6]; 60° C./75% RH in closed dish,at least 1 week
same,Change in purity %,[6]; [11],0.08%
same,Change in solid form,[6]; [11],doesn't change; also recorded: No form change
same,Bulk density,[7],0.179 g/mL
same,Tap density,[7],0.209 g/mL
same,Carr Index,[7],14%
same,Flowability,[7],Good (11-15)
same,Tensile strength (MPa),[8],1.36 MPa
same,Diameter (mm),[8],6.11 mm
same,Thickness (mm),[8],2.33 mm
"COc1cc2c(cc1OC)[C@H]1C[C@@H](OC(=O)[C@@H](N)C(C)C)[C@H](CC(C)C)CN1CC2 [Form I, (S)-2-amino-3-methyl-butyric acid (2R,3R,11bR)-3-isobutyl-9,10-dimethoxy-1,3,4,6,7,11b-hexahydro-2H-pyrido[2,1-a]isoquinolin-2-yl ester, reference compound]","Maximum amount sticking to the punch, Form I relative to Form A",[1],more than 3 times
same,Cumulative amount (mg) sticking to the punch,[1],0.21 mg
same,Maximum amount (mg) sticking to the punch,[1],7.58 mg
same,"Percentage gain (weight gain, hygroscopicity)",[2]; listed as Form I in prior art,0.40%
same,"Percentage gain (weight gain, hygroscopicity)",[2]; listed as prior art Form I,0.40%
same,Kinetic solubility (concentration of saturated solution),"[3]; FaSSIF, 15 minutes",30.637 mg/mL
same,Kinetic solubility (concentration of saturated solution),"[3]; FaSSIF, 30 minutes",30.189 mg/mL
same,Kinetic solubility (concentration of saturated solution),"[3]; FaSSIF, 1 hour",31.010 mg/mL
same,Kinetic solubility (concentration of saturated solution),"[3]; FeSSIF, 15 minutes",34.054 mg/mL
same,Kinetic solubility (concentration of saturated solution),"[3]; FeSSIF, 30 minutes",34.628 mg/mL
same,Kinetic solubility (concentration of saturated solution),"[3]; FeSSIF, 1 hour",35.012 mg/mL
same,Bulk density,[7],0.144 g/mL
same,Tap density,[7],0.174 g/mL
same,Carr Index,[7],17%
same,Flowability,[7],Fair (16-20)
same,Tensile strength (MPa),[8],0.86 MPa
same,Diameter (mm),[8],6.04 mm
same,Thickness (mm),[8],2.30 mm
